Measurements: patent publication US8815935B2, “Inhibitors of protein prenyltransferases” (The Regents of the University of California, priority 2008, dated 2014)
pIC50: −log10 of the molar value.

Tested on: K562 cells
Test: K562 cell growth inhibition
Format: cell-based, human
Settings: Tables 8-15; no unit printed there
Experimental: K562 cells are a cell line of human erythroleukemia cells. The K562 cells were treated with P3-E5, P5-H6 or GGTI-298 (a known GGTI compound illustrated in FIG. 27) for 72 hours and then cell number was counted using cell counting kit-8 (Dojindo, Gaithersburg, Md.). Cell viability relative to the DMSO control and the known GGTI compound is plotted in FIG. 23.
(§1) Cell viability was determined by Cell Counting Kit-8 (CCK-8, Dojindo, Kumamoto, Japan) as described previously (31). Cell viability was calculated relative to the DMSO control. Cell cycle profile was analyzed by flow cytometry as described previously (32).

Row | GI50 | Structure (SMILES)
1 | 4.37 µM | CC(C)C[C@H](NC(=O)C1=CC[C@@H](c2cccc(Cl)c2)N(S(=O)(=O)c2ccc(Br)cc2)C1c1cccc(Br)c1)C(N)=O (stereo partly shown) [P61-C10]
2 | 3.67 µM | CC(C)(C)[C@@H]1C=C(C(=O)N[C@@H](Cc2ccccc2)C(N)=O)[C@H](c2ccc(Cl)c(Cl)c2)N1S(=O)(=O)c1c(Cl)cccc1Cl [P61-D10]

Biological target: T1, GGTase-I (Rattus norvegicus, UniProt P53610+Q04631)
T1 construct: purchased JENA BIOSCIENCE
Test: In vitro GGTase-I enzyme assay (IC50, kinetics)
Format: biochemical
Settings: Tables 3, 5, 7; read-out: In vitro (enzyme assay) IC50, GGTase I
Experimental: The GGTase-I assay was carried out using RhoA as a substrate protein, GGTase-I (JENA Bioscience) and [3H]geranylgeranyl pyrophosphate. Incubation was for 30 min at 37° C. GGTase-II (or RabGGTase) assay was carried out using YPTI as a substrate protein, GGTase-II (Calbiochem, San Diego, Calif.) plus REP1 (Calbiochem) and [3H]geranylgeranyl pyrophosphate. Incubation was for 30 min at 37° C. FIGS. 20D-20F show the three dimensional structure of GGTase I (D), FTsse (E) and GGTase II (F) which can be obtained from X-ray diffraction studies of protein crystals.
GGTase-I and FTase activities were determined by following the incorporation of radiolabeled isoprenoid [^3H]-geranylgeranyl or [^3H]-farnesyl into substrate proteins. FTase or GGTase-I (50 nM) were used to initiate reactions containing 0.4 μM of [^3H]-FPP or 0.5 μM of [^3H]-GGPP and 2 μM of MBP-tagged substrates (K-Ras4B for FTase; RhoA for GGTase-I) in 20 μl of buffer {50 mM Tris-HCl (pH 7.5), 10 mM MgCl2, […] and 5 mM DTT}. Inhibitors were added at the indicated concentrations. The final DMSO concentration was 2.5% for all samples.
Reactions were carried out for 10 min at 30° C. The reaction mixture was spotted onto a filter paper, treated with 10% trichloroacetic acid (TCA) followed by ethanol and acetone washing. The filter was counted using a scintillation counter. Kinetic assays in which the GGPP concentration was varied employed fixed concentrations of GGTase-I and RhoA, and reactions were carried out for 5 min. Similarly, fixed concentrations of GGTase-I and GGPP were used when the amount of RhoA was varied.

Row | Structure (SMILES) | pIC50
3 | CCOC(=O)C1=C[C@@H](C(C)(C)C)N(S(=O)(=O)c2ccccc2C)[C@H]1c1ccc(Cl)cc1 | < 4.30
4 | Cc1ccccc1S(=O)(=O)N1C(c2cccc(Cl)c2)C(C(=O)N[C@@H](CC(C)C)C(N)=O)=CC[C@H]1c1ccc(Cl)cc1 (stereo partly shown) [P61-C05] | < 4.30
5 | COC(=O)C(CC(C)C)NC(=O)C1=CCC(c2cccc(Br)c2)N(S(=O)(=O)c2ccc(Cl)cc2)C1c1cccc(Cl)c1 (stereo not shown) [P67-A07] | < 4.70
6 | COC(=O)C(CC(C)C)NC(=O)C1=CCC(c2cccc(Cl)c2)N(S(=O)(=O)c2ccc(Br)cc2)C1c1cccc(Cl)c1 (stereo not shown) [P67-A09] | < 4.70
7 | COC(=O)C(CC(C)C)NC(=O)C1=CCC(c2cccc(Br)c2)N(S(=O)(=O)c2ccc(F)cc2)C1c1cccc(Cl)c1 (stereo not shown) [P67-H11] | < 4.70

The next lines start with the values.

Row | pIC50 | Structure (SMILES)
8 | 5.42 | CONC(=O)C1=C[C@@H](C(C)(C)C)N(S(=O)(=O)c2ccccc2C)[C@H]1c1ccc(Cl)cc1
9 | 5.85 | Cc1ccccc1S(=O)(=O)N1[C@@H](c2ccc(Cl)cc2)C(C(=O)N[C@@H](Cc2ccccc2)C(=O)O)=C[C@H]1C(C)(C)C [P61-A08]
10 | 5.09 | Cc1ccccc1S(=O)(=O)N1[C@@H](c2ccc(Cl)cc2)C(C(=O)N[C@@H](CC(C)C)C(N)=O)=C[C@H]1C(C)(C)C [P61-B02]
11 | 4.41 | CC(C)C[C@H](NC(=O)C1=CC[C@@H](c2cccc(Br)c2)N(S(=O)(=O)c2ccc(Cl)cc2)C1c1cccc(Cl)c1)C(N)=O (stereo partly shown) [P61-C06]
12 | < 4.70 | CC(C)(C)[C@@H]1C=C(C(=O)N[C@@H](Cc2ccccc2)C(N)=O)[C@H](c2ccc(Cl)c(Cl)c2)N1S(=O)(=O)c1ccccc1Br [P61-E03]
13 | < 4.70 | COC(=O)[C@H](CC(C)C)NC(=O)C1=CC[C@@H](c2ccc(Cl)cc2)N(S(=O)(=O)c2ccccc2C)[C@H]1c1cccc(Cl)c1 [P61-E07]
14 | < 4.70 | CC(C)C[C@H](NC(=O)C1=CC[C@@H](c2cccc(Cl)c2)N(S(=O)(=O)c2ccc(Br)cc2)[C@H]1c1cccc(Cl)c1)C(N)=O [P61-E08]
15 | < 4.70 | NC(=O)[C@H](Cc1ccccc1)NC(=O)C1=CC[C@@H](c2cccc(Cl)c2)N(S(=O)(=O)c2ccc(Br)cc2)C1c1cccc(Br)c1 (stereo partly shown) [P61-E09]
16 | < 4.70 | COC(=O)C(CC(C)C)NC(=O)C1=CCC(c2cccc(Cl)c2)N(S(=O)(=O)c2ccc(Br)cc2)C1c1cccc(Br)c1 (stereo not shown) [P67-A04]
17 | < 4.70 | COC(=O)C(CC(C)C)NC(=O)C1=CCC(c2cccc(Cl)c2)N(S(=O)(=O)c2ccc(Cl)cc2)C1c1cccc(Cl)c1 (stereo not shown) [P67-A05]
18 | 6.30 | Cc1ccccc1S(=O)(=O)N1[C@@H](c2ccc(Cl)cc2)C(C(=O)O)=C[C@H]1C(C)(C)C [drawing 136]

Same assay, conditions: Tables 5, 14; read-out: In vitro (enzyme assay) IC50, GGTase I

Row | pIC50 | Structure (SMILES)
19 | 6.30 | CC(C)CC(NC(=O)C1=CCC(c2cccc(Cl)c2)N(S(=O)(=O)c2ccc(Br)cc2)C1c1cccc(Cl)c1)C(=O)O (stereo not shown) [P61-E11]
20 | 6.52 | NC(=O)[C@H](Cc1ccccc1)NC(=O)C1=CC[C@@H](c2cccc(Br)c2)N(S(=O)(=O)c2ccc(Cl)cc2)C1c1cccc(Cl)c1 (stereo partly shown) [P61-F11]
21 | 6.35 | NC(=O)[C@H](Cc1ccccc1)NC(=O)C1=CC[C@@H](c2cccc(Br)c2)N(S(=O)(=O)c2ccc(Cl)cc2)C1c1cccc(Cl)c1 (stereo partly shown) [P61-G02]
22 | 6.82 | O=C(NC(Cc1ccccc1)C(=O)O)C1=CCC(c2cccc(Cl)c2)N(S(=O)(=O)c2ccc(Br)cc2)C1c1cccc(Cl)c1 (stereo not shown) [P61-G05]

Same assay, conditions: Tables 8-15; no unit printed there (Table 7 head: μM unless otherwise specified); read-out: In vitro (GGTase I IC50)

Row | IC50 | Structure (SMILES)
23 | > 20 µM | NC(=O)[C@H](Cc1ccccc1)NC(=O)C1=CC[C@@H](c2cccc(Cl)c2)N(S(=O)(=O)c2ccc(Br)cc2)C1c1cccc(Br)c1 (stereo partly shown) [P61-E09]

Tested on: Jurkat cells
Test: Jurkat cell growth inhibition
Format: cell-based, human
Settings: Homo sapiens, Jurkat, Tables 4, 6, 7; read-out: Jurkat cell GI50
Experimental: In Table 4 in cell GI50 values for the growth inhibition of Jurkat cells are reported. The GI50 value is the concentration of a test compound needed to produce 50% growth inhibition in the cell type listed. In Table 4 the isolated yield of each synthetic step for the synthesis of corresponding compounds are also reported.
Panc-1 cells (Pancreatic cancer cell line) and Jurkat cells (T-cell leukemia) were treated with 12.5 μM of P5-H6 or 12.5 μM of mP5-H6a for 72 hours. The cell number was counted as described in Example 5.
as §1

Row | Structure (SMILES) | GI50
24 | CCOC(=O)C1=C[C@@H](C(C)(C)C)N(S(=O)(=O)c2ccccc2C)[C@H]1c1ccc(Cl)cc1 | 18.5 µM
25 | Cc1ccccc1S(=O)(=O)N1C(c2cccc(Cl)c2)C(C(=O)N[C@@H](CC(C)C)C(N)=O)=CC[C@H]1c1ccc(Cl)cc1 (stereo partly shown) [P61-C05] | 6.1 µM
26 | COC(=O)C(CC(C)C)NC(=O)C1=CCC(c2cccc(Cl)c2)N(S(=O)(=O)c2ccc(Br)cc2)C1c1cccc(Cl)c1 (stereo not shown) [P67-A09] | 3.81 µM

Second part, the compound after the results:

Row | GI50 | Structure (SMILES)
27 | 12.6 µM | CONC(=O)C1=C[C@@H](C(C)(C)C)N(S(=O)(=O)c2ccccc2C)[C@H]1c1ccc(Cl)cc1
28 | 13 µM | Cc1ccccc1S(=O)(=O)N1[C@@H](c2ccc(Cl)cc2)C(C(=O)N[C@@H](Cc2ccccc2)C(=O)O)=C[C@H]1C(C)(C)C [P61-A08]
29 | 6.58 µM | Cc1ccccc1S(=O)(=O)N1[C@@H](c2ccc(Cl)cc2)C(C(=O)N[C@@H](CC(C)C)C(N)=O)=C[C@H]1C(C)(C)C [P61-B02]
30 | 3.15 µM | CC(C)C[C@H](NC(=O)C1=CC[C@@H](c2cccc(Br)c2)N(S(=O)(=O)c2ccc(Cl)cc2)C1c1cccc(Cl)c1)C(N)=O (stereo partly shown) [P61-C06]
31 | 3.53 µM | COC(=O)[C@H](CC(C)C)NC(=O)C1=CC[C@@H](c2ccc(Cl)cc2)N(S(=O)(=O)c2ccccc2C)[C@H]1c1cccc(Cl)c1 [P61-E07]
32 | 8 µM | COC(=O)C(CC(C)C)NC(=O)C1=CCC(c2cccc(Cl)c2)N(S(=O)(=O)c2ccc(Br)cc2)C1c1cccc(Br)c1 (stereo not shown) [P67-A04]
33 | 20 µM | Cc1ccccc1S(=O)(=O)N1[C@@H](c2ccc(Cl)cc2)C(C(=O)O)=C[C@H]1C(C)(C)C [drawing 136]

Same assay, conditions: Tables 4, 6, 7; read-out: Jurkat cell GI50

Row | GI50 | Structure (SMILES)
34 | 2.22 µM | CC(C)C[C@H](NC(=O)C1=CC[C@@H](c2cccc(Cl)c2)N(S(=O)(=O)c2ccc(Br)cc2)C1c1cccc(Br)c1)C(N)=O (stereo partly shown) [P61-C10]
35 | 5.28 µM | CC(C)(C)[C@@H]1C=C(C(=O)N[C@@H](Cc2ccccc2)C(N)=O)[C@H](c2ccc(Cl)c(Cl)c2)N1S(=O)(=O)c1c(Cl)cccc1Cl [P61-D10]

Same assay, conditions: Tables 8-15; no unit printed there; read-out: Jurkat GI50

Row | GI50 | Structure (SMILES)
36 | 2.22 µM | CC(C)C[C@H](NC(=O)C1=CC[C@@H](c2cccc(Cl)c2)N(S(=O)(=O)c2ccc(Br)cc2)C1c1cccc(Br)c1)C(N)=O (stereo partly shown) [P61-C10]
37 | 5.28 µM | CC(C)(C)[C@@H]1C=C(C(=O)N[C@@H](Cc2ccccc2)C(N)=O)[C@H](c2ccc(Cl)c(Cl)c2)N1S(=O)(=O)c1c(Cl)cccc1Cl [P61-D10]
